Test results from patent US11161856B2 (H. Lundbeck A/S, priority 2017, dated 2021).

Tests used:
ABHD6 = molecular target: T1, ABHD6 (Mus musculus, UniProt Q8R2Y0); test: In vitro competitive activity-based protein profiling, mouse brain proteome (ABHD6); type: biochemical; settings: mouse brain proteome; concentration not given (μM)
T1 construct: Brain; from tissue; host or cells: mouse brain proteome
T1 sequence (Q8R2Y0 1-336): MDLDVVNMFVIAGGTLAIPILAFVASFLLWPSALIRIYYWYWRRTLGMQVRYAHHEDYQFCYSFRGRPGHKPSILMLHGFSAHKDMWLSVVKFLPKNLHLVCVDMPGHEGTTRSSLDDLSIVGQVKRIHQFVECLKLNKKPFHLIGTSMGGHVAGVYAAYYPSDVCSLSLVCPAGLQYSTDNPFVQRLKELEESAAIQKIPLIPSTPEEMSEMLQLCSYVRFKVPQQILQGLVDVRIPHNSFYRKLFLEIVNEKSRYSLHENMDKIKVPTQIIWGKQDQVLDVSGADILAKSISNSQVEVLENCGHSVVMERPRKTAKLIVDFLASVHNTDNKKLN
Protocol: [The source words this procedure for another target and reports this target under the same test.] In Vitro Competitive Activity-Based Protein Profiling.
Proteomes (human prefrontal cortex or cell membrane fractions) (50 μL, 1.0 mg/mL total protein concentration) were preincubated with varying concentrations of inhibitors at 37° C. After 30 min, FP-Rh or HT-01 (1.0 μL, 50 μM in DMSO) was added and the mixture was incubated for another 30 min at room temperature. Reactions were quenched with SDS loading buffer (15 μL-4×) and run on SDS-PAGE.

MGLL = molecular target: T2, MGLL (Mus musculus, UniProt O35678); test: In vitro competitive activity-based protein profiling, mouse brain proteome (MGLL); type: biochemical; settings: concentration not given (μM)
T2 construct: Brain; from tissue; host or cells: mouse brain proteome
T2 sequence (O35678 1-303): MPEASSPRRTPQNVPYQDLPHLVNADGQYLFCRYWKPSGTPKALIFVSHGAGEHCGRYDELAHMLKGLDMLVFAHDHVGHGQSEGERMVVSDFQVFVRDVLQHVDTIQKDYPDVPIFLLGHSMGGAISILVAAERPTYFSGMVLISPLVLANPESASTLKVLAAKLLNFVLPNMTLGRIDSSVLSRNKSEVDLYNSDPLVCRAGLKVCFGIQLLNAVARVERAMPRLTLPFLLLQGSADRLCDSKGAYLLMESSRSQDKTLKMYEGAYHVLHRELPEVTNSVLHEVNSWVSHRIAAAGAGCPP

% Inh ABHD6 Brain (Mouse, μM) (ABHD6) | % Inh MGLL Brain (Mouse, μM) (MGLL) | Structure (SMILES)
### (### is ≥75%) | ### (### is ≥75%) | CS(=O)(=O)N1CC2(CCN(c3cc(Cl)cc(CN4CCCC45CN(C(=O)OC(C(F)(F)F)C(F)(F)F)C5)c3)CC2)C1 [Example 240, 1,1,1,3,3,3-Hexafluoropropan-2-yl 5-(3-chloro-5-(2-(methylsulfonyl)-2,7-diazaspiro[3.5]nonan-7-yl)benzyl)-2,5-diazaspiro[3.4]octane-2-carboxylate]
# (# is ≤25%) | ### (### is ≥75%) | CN1CC2(CCN(c3cc(Cl)ccc3CN3CCN(C(=O)OC(C(F)(F)F)C(F)(F)F)CC3)C2)C1 [Example 169, 1,1,1,3,3,3-Hexafluoropropan-2-yl 4-(4-chloro-2-(2-methyl-2,6-diazaspiro[3.4]octan-6-yl)benzyl)piperazine-1-carboxylate]
### (### is ≥75%) | ### (### is ≥75%) | Cc1cc(N2CCOCC2)ccc1CN1CCC2(CC1)CN(C(=O)OC(C(F)(F)F)C(F)(F)F)C2 [Example 71, 1,1,1,3,3,3-Hexafluoropropan-2-yl 7-(2-methyl-4-morpholinobenzyl)-2,7-diazaspiro[3.5]nonane-2-carboxylate]
# (# is ≤25%) | ### (### is ≥75%) | O=C(OC(C(F)(F)F)C(F)(F)F)N1CCC2(CCN(Cc3ccc(Cl)cc3N3CCCCC3)CC2)C1 [Example 191, 1,1,1,3,3,3-Hexafluoropropan-2-yl 8-(4-chloro-2-(piperidin-1-yl)benzyl)-2,8-diazaspiro[4.5]decane-2-carboxylate]
# (# is ≤25%) | ### (### is ≥75%) | CS(=O)(=O)N1CC2(CCN(c3cc(C(F)(F)F)ccc3CN3CCN(C(=O)OC(C(F)(F)F)C(F)(F)F)CC3)C2)C1 [Example 186, 1,1,1,3,3,3-Hexafluoropropan-2-yl 4-(2-(2-(methylsulfonyl)-2,6-diazaspiro[3,4]octan-6-yl)-4-(trifluoromethyl)benzyl) piperazine-1-carboxylate]
### (### is ≥75%) | ### (### is ≥75%) | O=C(OC(C(F)(F)F)C(F)(F)F)N1CCC2(CC1)CN(Cc1cccc(N3CCCC3)c1)C2 [Example 94, 1,1,1,3,3,3-Hexafluoropropan-2-yl 2-(3-(pyrrolidin-1-yl)benzyl)-2,7-diazaspiro[3.5]nonane-7-carboxylate]
### (### is ≥75%) | ### (### is ≥75%) | O=C(OC(C(F)(F)F)C(F)(F)F)N1CCC2(CC1)CN(Cc1ccccc1N1CCCC1)C2 [Example 88, 1,1,1,3,3,3-Hexafluoropropan-2-yl 2-(2-(pyrrolidin-1-yl)benzyl)-2,7-diazaspiro[3.5]nonane-7-carboxylate]
### (### is ≥75%) | ### (### is ≥75%) | O=C(OC(C(F)(F)F)C(F)(F)F)N1CCC2(CC1)CN(Cc1c(Cl)cccc1N1CCCC1)C2 [Example 42, 1,1,1,3,3,3-Hexafluoropropan-2-yl 2-(2-chloro-6-(pyrrolidin-1-yl)benzyl)-2,7-diazaspiro[3.5]nonane-7-carboxylate]
# (# is ≤25%) | ### (### is ≥75%) | O=C(OC(C(F)(F)F)C(F)(F)F)N1CCC2(CCN(Cc3cccc(Cl)c3N3CCCC3)CC2)C1 [Example 171, 1,1,1,3,3,3-Hexafluoropropan-2-yl 8-(3-chloro-2-(pyrrolidin-1-yl)benzyl)-2,8-diazaspiro[4.5]decane-2-carboxylate]
# (# is ≤25%) | ## (## is between 25 and 75%) | CC(=O)N1CC2(CCN(c3ccccc3CN3CCCC34CN(C(=O)OC(C(F)(F)F)C(F)(F)F)C4)C2)C1 [Example 230, 1,1,1,3,3,3-Hexafluoropropan-2-yl 5-(2-(2-acetyl-2,6-diazaspiro[3,4]octan-6-yl)benzyl)-2,5-diazaspiro[3.4]octane-2-carboxylate]

Continued, compound first:

Structure (SMILES) | % Inh ABHD6 Brain (Mouse, μM) (ABHD6) | % Inh MGLL Brain (Mouse, μM) (MGLL)
O=C(OC(C(F)(F)F)C(F)(F)F)N1CCC2(CC1)CN(Cc1ccc(C(F)(F)F)cc1)C2 [Example 69, 1,1,1,3,3,3-Hexafluoropropan-2-yl 2-(4-(trifluoromethyl)benzyl)-2,7-diazaspiro[3,5]nonane-7-carboxylate] | ### (### is ≥75%) | ### (### is ≥75%)
O=C(OC(C(F)(F)F)C(F)(F)F)N1CCC2(CC1)CN(Cc1c(N3CCC(F)CC3)cccc1C(F)(F)F)C2 [Example 51, 1,1,1,3,3,3-Hexafluoropropan-2-yl 2-(2-(4-fluoropiperidin-1-yl)-6-(trifluoromethyl)benzyl)-2,7-diazaspiro[3,5]nonane-7-carboxylate] | ### (### is ≥75%) | ### (### is ≥75%)
CCN1CCN(c2cccc(C(F)(F)F)c2CN2CC3(CCN(C(=O)OC(C(F)(F)F)C(F)(F)F)CC3)C2)CC1 [Example 54, 1,1,1,3,3,3-Hexafluoropropan-2-yl 2-(2-(4-ethylpiperazin-1-yl)-6-(trifluoromethyl)benzyl)-2,7-diazaspiro[3.5]nonane-7-carboxylate] | # (# is ≤25%) | ### (### is ≥75%)
CS(=O)(=O)N1CCc2cccc(CN3CCC4(CC3)CCN(C(=O)OC(C(F)(F)F)C(F)(F)F)C4)c2C1 [Example 217, 1,1,1,3,3,3-Hexafluoropropan-2-yl 8-((2-(methylsulfonyl)-1,2,3,4-tetrahydroisoquinolin-8-yl)methyl)-2,8-diazaspiro[4.5]decane-2-carboxylate] | ### (### is ≥75%) | ### (### is ≥75%)
O=C(OC(C(F)(F)F)C(F)(F)F)N1CCC2(CC1)CN(Cc1ccc(C(F)(F)F)cc1N1CCCCC1)C2 [Example 35] | ## (## is between 25 and 75%) | ### (### is ≥75%)
O=C(OC(C(F)(F)F)C(F)(F)F)N1CCC2(CCN(Cc3ccc(C(F)(F)F)cc3N3CC4COCC4C3)CC2)C1 (stereo not drawn) [Example 188, 1,1,1,3,3,3-Hexafluoropropan-2-yl 8-(2-(tetrahydro-1H-furo[3,4-c]pyrrol-5(3H)-yl)-4-(trifluoromethyl)benzyl)-2,8-diazaspiro[4.5]decane-2-carboxylate] | # (# is ≤25%) | ### (### is ≥75%)
CCN1CCN(c2cccc(Cl)c2CN2CC3(CCN(C(=O)OC(C(F)(F)F)C(F)(F)F)CC3)C2)CC1 [Example 50, 1,1,1,3,3,3-Hexafluoropropan-2-yl 2-(2-chloro-6-(4-ethylpiperazin-1-yl)benzyl)-2,7-diazaspiro[3.5]nonane-7-carboxylate] | ### (### is ≥75%) | ### (### is ≥75%)
CC(=O)N1CC2CN(c3cc(C(F)(F)F)ccc3CN3CCN(C(=O)OC(C(F)(F)F)C(F)(F)F)CC3)CC2C1 (stereo not drawn) [Example 200, 1,1,1,3,3,3-Hexafluoropropan-2-yl 4-(2-(5-acetylhexahydropyrrolo[3,4-c]pyrrol-2(lH)-yl)-4-(trifluoromethyl)benzyl)pipera zine-l-carboxylate] | # (# is ≤25%) | ### (### is ≥75%)
CS(=O)(=O)N1CCC2(CCN(c3cccc(C(F)(F)F)c3CN3CC4(CCN(C(=O)OC(C(F)(F)F)C(F)(F)F)CC4)C3)CC2)C1 [Example 62, 1,1,1,3,3,3-Hexafluoropropan-2-yl 2-(2-(2-(methylsulfonyl)-2,8-diazaspiro[4.5]decan-8-yl)-6-(trifluoromethyl)benzyl)-2,7-diazaspiro[3.5]nonane-7-carboxylate] | ### (### is ≥75%) | ### (### is ≥75%)
O=C(OC(C(F)(F)F)C(F)(F)F)N1CCC2(CCN(Cc3ccc(C(F)(F)F)cc3N3CCC(F)CC3)CC2)C1 [Example 192, 1,1,1,3,3,3-Hexafluoropropan-2-yl 8-(2-(4-fluoropiperidin-1-yl)-4-(trifluoromethyl)benzyl)-2,8-diazaspiro[4.5]decane-2-carboxylate] | # (# is ≤25%) | ### (### is ≥75%)
O=C(OC(C(F)(F)F)C(F)(F)F)N1CC2(CCN(Cc3ccc(Cl)c(Cl)c3)CC2)C1 [Example 55, 1,1,1,3,3,3-Hexafluoropropan-2-yl 7-(3,4-dichlorobenzyl)-2,7-diazaspiro[3,5]nonane-2-carboxylate] | ### (### is ≥75%) | ## (## is between 25 and 75%)
